Earlier results in US8343565B2, “Method for producing grape extract with high ORAC value and grape extract so produced” (Ethical Naturals, Inc., priority 2008, dated 2013).

Settings: exemplary ORAC scores listed in the background

Compound | ORAC scores for common vegetables and fruits
vitamin E | 1,200 μmol TE/g
O=C1O[C@H]([C@@H](O)CO)C(O)=C1O [vitamin C] | 5,000 μmol TE/g
